From patent publication EP0867722A2, “Method for measuring interaction between sugar and target” (TAKARA SHUZO CO. LTD., priority 1997, dated 1998)

Legend:
[1] = Photostability of labeling fluorophores under white fluorescent lamp (residual fluorescence); format: physicochemical; conditions: 1 µM in 10 mM Tris-HCl buffer, pH 7.5, 25°C, white fluorescent lamp about 4000 lux, 16 hours; ratio of exposed solution to shaded solution
Excerpt: For the measurement of photostability, therefore, such labeling fluorophores are used. The following seven labeling fluorophores were selected. • 1. 2-Aminopyridine (AP) (Nacalai Tesque Inc.) • 2. […] 8-Amino-2-naphthol (AN) (Aldrich Chemical Company, Inc.) • 4. 5-((5-aminopentyl)thioureidyl)fluorescein (AF) (Molecular Probes Inc.) • 5. 5-Dimethylaminonapnthalene-1-(N-(2-minoethyl))sulfone (AD) (Molecular Probes Inc.) • 6. 2-Aminobenzamide (AB) (Oxford GlycoSystems Ltd.) • 7. 8-Amino-naphthalene-1,3,6-trisulfonic acid (ANTS) (Molecular Probes Inc.)
Each of the above reagents was dissolved in 10 mM Tris-HCl buffer, pH 7.5, to a concentration of 1 µM, and 1 ml of each solution was placed in a test tube of hard glass (size: diameter, 12 mm and length, 120mm) and allowed to stand at 25°C under a white fluorescent lamp. At this time, the illumination intensity in the vicinity of each solution was measured by an illumination photometer to be about 4000 lux. For controls, test tubes containing the same solutions were prepared, but they were shaded with aluminum foil and stored under the same conditions as described above. After 16 hours, the fluorescence of each solution was measured by fluorescent spectrophotometer RF-540 (Shimazu Corp.). The excitation and emission wavelengths used in the measurement of fluorescence of the solutions of each fluorescent substance, and residual fluorescence (i.e., ratio of the relative degree of fluorescence for the exposed solution to the relative degree of fluorescence for the shaded solution) are shown in Table 1.

concanavalin A = target: T1, concanavalin A (Canavalia ensiformis, UniProt P02866); test: Fluorescence polarization measurement of interaction between fluorescence-labeled sugar fractions and concanavalin A; format: binding; conditions: 1 µM labeled sugar or fluorophore; no maximum means EC50 impossible to calculate
T1 construct: purchased Honen Oil Co., Ltd
Excerpt: The interaction between the sugar molecules and the target molecules to be measured is not always highly specific as compared with antigen-antibody reaction. To find the most suitable combination, the degree of interaction should be evaluated. As an index to show the degree of interaction, for example, EC50 can be used, which is a half value of the minimum target concentration giving the maximum degree of fluorescence polarization.
BEACON™ 2000 (PanVera Corp.) was modified so as to be adapted for the detection of pyridylamino-labeled substances. […]
Seven fractions of fluorescence-labeled sugars prepared in the above item 1 were freeze-dried to remove water, acetonitrile and eluents-derived salts, and then used for the subsequent measurement of an interaction. The measurement of the degree of fluorescence polarization was conducted as follows. […]
In each of the eight solutions of concanavalin A in various concentrations, each fluorescence-labeled sugar fraction was dissolved to a concentration of 1 µM. After the dissolution, the solutions were allowed to stand at room temperature for 30 minutes, and the reaction mixtures thus obtained were used each in a volume of 100 µl to measure the degree of fluorescence polarization with a modified apparatus of the BEACON™ system as described in the above item 2, which was equipped with filters for excitation at 310 nm and emission at 390 nm. […]

SMILES | Residual fluorescence (%) [1] [%] | maximum in the degree of fluorescence polarization over the range of concentration of concanavalin A (concanavalin A)
Nc1cccc2ccc(O)cc12 [AN, 8-Amino-2-naphthol] | 84 | 
Nc1ccccn1 [AP, 2-Aminopyridine] | 98 | no maximum
Nc1cc(S(=O)(=O)O)cc2cc(S(=O)(=O)O)cc(S(=O)(=O)O)c12 [ANTS, 8-Amino-naphthalene-1,3,6-trisulfonic acid] | 96 | 
CN(C)c1cccc2c(S(=O)(=O)NCCN)cccc12 [AD, 5-Dimethylaminonapnthalene-1-(N-(2-minoethyl))sulfone] | 97 | 
NC(=O)c1ccccc1N [AB, 2-Aminobenzamide] | 96 | 
NCCCCCNC(=S)Nc1ccc2c(c1)C(=O)OC21c2ccc(O)cc2Oc2cc(O)ccc21 [AF, 5-((5-aminopentyl)thioureidyl)fluorescein] | 17 | 
